Measured values published in patent US11229635B2, “Method of treating fibrosis” (BCN Biosciences L.L.C., priority 2016, dated 2022).

Legend:
[1] = tested on: radiation dermatitis (erythema, edema); test: Draize scoring of dermal radiation sites, dermal dosing 10 mg/mL Day 0 to 6; assay type: in vivo; settings: Avg of Days 1-6 and 8
[2] = tested on: inflammatory peritoneal macrophages; test: Cytokine release by LPS-stimulated inflammatory peritoneal macrophages; assay type: cell-based; settings: stimulation with LPS in vitro
Source text: Because of the focus on lung fibrosis, we examined the effects of irradiation on macrophages in terms of their ability to modulate fibroblast responses. […] In addition, BCN-512 blocks the ability of irradiated macrophages to stimulate fibroblast proliferation. The ability of BCN-512 to reprogram macrophages is likely highly relevant to its ability to mitigate radiation induced fibrosis and tissue damage

[3] = tested on: radiation-induced pneumonitis and lung fibrosis; test: Thoracic lung irradiation: survival, lung histology, fibrosis; assay type: in vivo, mouse
Protocol: Our goal is to develop a drug to protect lung from ionizing radiation that is administered subcutaneously and has a favorable risk/benefit profile when administered 24 hours or later after radiation exposure. The drug, BCN 512, originally discovered in the UCLA CMCR, is a novel drug that emerged from high-throughput screening of small molecule libraries, and is now under investigation as a radiation injury mitigator. In our efforts to develop the drug as a lung MCM to treat the Delayed Effects of Acute Radiation Exposure (DEARE), we use the C57BL/6 and C3H mouse models. These models appear to recapitulate human lung fibrosis and pneumonitis, respectively, based upon the distinct sensitivity of the two strains (1, 2).
Radiation fibrosis is a progressive, dose-related, late complication of radiation exposure, with animals and humans surviving for some time with non-lethal damage. […] 512 works by altering the inflammatory infiltrate into the lung.
A: Lung histology of C57BL/6 mice receiving local thoracic radiation (radiation of the lung area) presenting a focal area of increased cellularity and edema on the upper left quadrant. Adjacent to this is increased cellularity (the lacey patterning). The lower right quadrant, emphysema is present with large clear areas indicating where alveoli have collapsed to present large open areas. B. Histopathology of C57BL/6 mouse lung under identical radiation treatment as A, but also treated with 5 mg/kg BCN512 once per day every 24 hours for 5 doses.
In both lobes, significant collapse of alveoli can be seen along with hyper cellularity (dark areas) and pronounced emphysema (large open areas) presenting fibrosis. C, D are separate lobes from the same animal treated identically as above but receiving BCN512 at 5 mg/kg daily for 5 days after 14.5Gy local thoracic radiation.

[4] = tested on: WINT target gene expression; test: Wnt target gene expression; settings: FIG. 23
[5] = tested on: immature myeloid cells; test: Immature myeloid cells after WBI and WTLI; assay type: in vivo
Source text: 2. […] They co-express CD11b, Ly6G, and Ly6C, and are required for mitigation by BCN-512, at least after WBI.

O=[N+]([O-])c1ccc(S(=O)(=O)N2CCN(c3ccccc3)CC2)cc1 [BCN512, 1-[(4-nitrobenezene)sulfonyl]-4-phenyl piperazine]
Average Draize score Edema [1]: 0 | Average Draize score Edema Site 2 [1]: 0 | Average Draize score Edema Site 3 [1]: 0.5714 | Average Draize score Edema Site 4 [1]: 0 | Average Draize score Edema Site 5 [1]: 0.8571 | Average Draize score Edema Site 6 [1]: 0 | Average Draize score Erythema Site 2 [1]: 0.4286 | Average Draize score Erythema Site 3 [1]: 1.429 | Average Draize score Erythema Site 4 [1]: 0.1429 | Average Draize score Erythema Site 5 [1]: 1.571 | Average Draize score Erythema Site 6 [1]: 0.8571 | amount of pro-inflammatory cytokines released [2]: decreases | lung fibrosis histology ([3]; 14.5Gy local thoracic radiation, 5 mg/kg daily for 5 days, Day 120): Absent are the large lesions and pronounced fibrosis | overall survival from pneumonitis and lung fibrosis ([3]; 18 Gy whole thoracic lung irradiation, 5 mg/Kg sc in Cremophor days 1-5, at 90 days and 160): improved overall survival | lung histopathology ([3]; C57BL/6 mice, 14.5Gy local thoracic radiation, 5 mg/kg once per day for 5 doses): Lung tissue is normal with no evident emphysema or edema or hyper cellularity or immune infiltrate | development of radiation fibrosis (late disease) ([3]; after 14 Gy, acute delivery (FIG. 18)): mitigates against the development of this late disease | inflammatory macrophage content and phenotypic markers in the lung ([3]; after LTI, day 150): decrease in inflammatory macrophage content and phenotypic markers | mature macrophage cell content in lung ([3]; day 160 after LTI): greatly decreased | Wnt target gene expression [4]: induces the WINT target gene expression | number of immature myeloid cells (CD11b, Ly6G, Ly6C) [5]: greatly increases
